Where “and” joins values, the source holds several entries; their conditions need not be identical. Identical values can stand only once.

The values below come from PubChem BioAssay AID2060359 (Molecular Pharmacology Branch, DTP, NCI, 2025).

In the test the test system is 276233-004-R-J1-PDC spheroids with HUVEC/MSC, viability. The experiment in a line: Anticancer human tumor 276233-004-R-J1-PDC patient-derived colon adenocarcinoma cell line growth inhibition [TAK]. The note with it: for viability, T/C: stronger effect = lower value. Summed up:
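Drug combinations, each paired with TAK-243 or ipatasertib, were tested on multi-cell spheroids of 60% malignant cells, 25% HUVEC and 15% hMSC. Top concentrations were at or near the clinical Cmax (10 microM if undetermined), decreasing by half-log; viability is given as % test/control.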
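Further: spheroids exposed to drugs for seven days before the viability read.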

As usually defined, the IC50 is the concentration needed to halve the response being measured. What is called viability, T/C is the ratio of treated to control. On to `Cn1cnc2c(F)c(Nc3ccc(Br)cc3Cl)c(C(=O)NOCCO)cc21` + CC(C)NCC(C(=O)N1CCN(c2ncnc3c2C(C)CC3O)CC1)c1ccc(Cl)cc1, for which the IC50 (curve of first compound, second compound 0.3 µM) was 462 nM; the IC50 (curve of first compound, second compound 0.949 µM) was 361 nM; the IC50 (curve of first compound, second compound 3 µM) is 145 nM; the IC50 (curve of first compound, second compound 9.49 µM) stood at 63.8 nM; the IC50 (curve of first compound, second compound 30 µM) worked out at 9.49 nM. Moreover, the viability, T/C is 79.5% (second compound 0.3 µM, first compound 0.00949 µM); 82.8% (second compound 0.3 µM, first compound 0.03 µM); 65.4% (second compound 0.3 µM, first compound 0.0949 µM); 52% (second compound 0.3 µM, first compound 0.3 µM); 49.8% (second compound 0.3 µM, first compound 0.949 µM); 38.5% (second compound 0.3 µM, first compound 3 µM). Also, the viability, T/C runs as follows: (second compound 0.949 µM, first compound 0.00949 µM) 73.6%; (second compound 0.949 µM, first compound 0.03 µM) 68.5%; (second compound 0.949 µM, first compound 0.0949 µM) 57.9%; (second compound 0.949 µM, first compound 0.3 µM) 52.2%; (second compound 0.949 µM, first compound 0.949 µM) 43.1%; (second compound 0.949 µM, first compound 3 µM) 33.3%. Further, the viability, T/C (second compound 3 µM, first compound 0.00949 µM) was 67.2%; the viability, T/C (second compound 3 µM, first compound 0.03 µM) is 61.1%; the viability, T/C (second compound 3 µM, first compound 0.0949 µM) is 54.4%; the viability, T/C (second compound 3 µM, first compound 0.3 µM) is 42%; the viability, T/C (second compound 3 µM, first compound 0.949 µM) is 39.7%; the viability, T/C (second compound 3 µM, first compound 3 µM) is 31.4%. Also, the viability, T/C runs as follows: (second compound 9.49 µM, first compound 0.00949 µM) 64%; (second compound 9.49 µM, first compound 0.03 µM) 57.1%; (second compound 9.49 µM, first compound 0.0949 µM) 45.6%; (second compound 9.49 µM, first compound 0.3 µM) 40.4%; (second compound 9.49 µM, first compound 0.949 µM) 32.7%; (second compound 9.49 µM, first compound 3 µM) 28.9%. In addition, the viability, T/C reads like this: (second compound 30 µM, first compound 0.00949 µM) 50.1%; (second compound 30 µM, first compound 0.03 µM) 45.2%; (second compound 30 µM, first compound 0.0949 µM) 42.5%; (second compound 30 µM, first compound 0.3 µM) 52%; (second compound 30 µM, first compound 0.949 µM) 28.9%; (second compound 30 µM, first compound 3 µM) 33.1%.

For the molecule `Cc1nc(NC(=O)N2CCCC2C(N)=O)sc1-c1ccnc(C(C)(C)C(F)(F)F)c1` (centres undefined), the viability, T/C was 100% and 88.8% (compound 0.0316 µM); 89.7% and 95.4% (compound 0.1 µM); 80% and 70.7% (compound 0.316 µM); 61.8% and 64.2% (compound 1 µM); 64% and 56.8% (compound 3.16 µM); 42.8% and 50.4% (compound 10 µM). Further, for the setting “curve of compound”, the IC50 was 6270 nM and > 10000 nM.

`Cn1cnc2c(F)c(Nc3ccc(Br)cc3Cl)c(C(=O)NOCCO)cc21`: the viability, T/C reads like this: (compound 0.00949 µM) 83.5% and 81.4%; (compound 0.03 µM) 81.7% and 79.9%; (compound 0.0949 µM) 62.3% and 70.2%; (compound 0.3 µM) 70.4% and 70.3%; (compound 0.949 µM) 57% and 62.4%; (compound 3 µM) 45.9% and 44.9%. Where the note is “curve of compound”, the IC50 is 2100 nM and 2190 nM.
